Laboratory results: patent US20260248087A1, “GENERATING DOUBLED HAPLOID PLANTS” (Syngenta Crop Protection AG, priority 2023, published 2026)

Tests used:
[1] = test system: embryos from maize ears; experiment: Potted rate after metcamifen pre-treatment of isolated embryos; assay type: in vivo
Text: (§1) As used herein, the term “potted rate” or “potting rate” refers to the percent of germinated embryos successfully transferred to soil from total treated haploid embryos. The “potted rate” is used as an indication of plant health in monitoring the success of recovery and growth after treatment of haploids. As used herein, the term “transplant rate” refers to the survival of healthy plants after embryos were germinated and transferred to soil.
Embryos from maize ears were isolated and treated with metcamifen prior to a colchicine doubling treatment. Isolated embryos plated on filter paper were pre-treated with a formulation of metcamifen at concentrations of 0, 10, 100, and 1000 mg/L in Murashige and Skoog Medium (MS media) for a duration of 1, 3, 5, or 7 days at 6° C. with 150 PAR light. GST27 induction was measured after pre-treatment at each time point and again at the end of the colchicine treatment. Resulting embryos were germinated, and the percentage of embryos successfully transferred to soil (percent potted rate) was measured as an indicator of plant health and pre-treatment effectiveness. GST27 was induced by metcamifen at a medium level ([…] of TSP), but higher than ear pre-treatment that was less than 10 ng/ml of TSP.
Embryo pre-treatment with metcamifen at 10 mg/L was tested at temperatures of 6° C. and 20° C. for 1 day to measure the impact of temperature on embryo health.

[2] = test system: isolated embryos; experiment: Potting and transplant rate, thiamethoxam liquid media pre-treatment prior to colchicine doubling; assay type: in vivo, maize
Text: as §1
TMX pre-treatment application to isolated embryos prior to colchicine doubling was done in 2 genotypes with replication. Isolated embryos were plated on filter paper and pre-treated with a formulation of TMX at concentrations ranging from 10-1000 mg/L in liquid media. The pre-treatments incubated for 0.5 to 24 hours. Following the pre-treatment, embryos were treated with colchicine for chromosome doubling and plant regeneration. The effect on potting rate and transplant rate were evaluated (see Table 10).
In a follow-up experiment, the liquid pre-treatment was tested at 30 minute and 1-hour durations to determine if a shorter duration would result in better potting and transplant rates than observed in the 1 hour treatments shown in Table 10. These were performed in the same manner as described above, in triplicate.

[3] = test system: isolated embryos; experiment: Potted rate, transplant rate and seedling height, thiamethoxam co-treatment during colchicine doubling; assay type: in vivo, maize
Text: as §1
In addition to testing of safeners such as metcamifen, testing the effects of other compounds, such as thiamethoxam (TMX), were completed. Isolated embryos were co-treated with TMX during colchicine doubling in the doubling media. The co-treatments were allowed to incubate for 24 or 48 hours. Four genotypes representing two heterotic groups were tested with replication. The effect on potting rate from in vitro culture was evaluated.
Initial testing measured the effect of TMX at concentrations of 0, 150, or 750 mg/L for 24 or 48 hours. […] The strongest effect of TMX co-treatment seen with the 48-hour duration was at 750 mg/L TMX compared to the control.
Further testing was done and TMX was applied to isolated embryos at levels of 0, 750, 1500, 2000 mg/L during colchicine co-treatment. The co-treatments were incubated for 24 or 48 hours.
TMX was applied to isolated embryos at levels of 0, 2000, 4000, 8000 mg/L during colchicine co-treatment. The co-treatments were incubated for durations of 24 or 48 hours.
TMX was applied to isolated embryos at levels of 0, 2000, 4000, or 6000 mg/L during colchicine co-treatment. The co-treatments were incubated for durations of 24 or 48 hours. […] The highest percent transplanted rates were 86% and 83% for co-treatments 4000 mg/L at 24 hours and 6000 mg/L at 48 hours, respectively (see Table 8).

[4] = Table 10: liquid media pre-treatment, TMX 10 mg/L, 1 hr
[5] = Table 10: liquid media pre-treatment, TMX 10 mg/L, 24 hr
[6] = Table 10: liquid media pre-treatment, TMX 100 mg/L, 1 hr
[7] = Table 10: liquid media pre-treatment, TMX 100 mg/L, 24 hr
[8] = Table 10: liquid media pre-treatment, TMX 1000 mg/L, 1 hr
[9] = Table 10: liquid media pre-treatment, TMX 1000 mg/L, 24 hr
[10] = Table 11: liquid pre-treatment, TMX 100 mg/L, 30 min
[11] = Table 11: liquid pre-treatment, TMX 100 mg/L, 1 hr
[12] = Table 11: liquid pre-treatment, TMX 1000 mg/L, 30 min
[13] = Table 11: liquid pre-treatment, TMX 1000 mg/L, 1 hr
[14] = Table 6: co-treatment with colchicine, TMX 750 mg/L, 24 hours
[15] = Table 6: co-treatment with colchicine, TMX 750 mg/L, 48 hours
[16] = Table 6: co-treatment with colchicine, TMX 1500 mg/L, 24 hours
[17] = Table 6: co-treatment with colchicine, TMX 1500 mg/L, 48 hours
[18] = Table 6: co-treatment with colchicine, TMX 2000 mg/L, 24 hours
[19] = Table 6: co-treatment with colchicine, TMX 2000 mg/L, 48 hours
[20] = Table 7: co-treatment with colchicine, TMX 2000 mg/L, 24 hours
[21] = Table 7: co-treatment with colchicine, TMX 2000 mg/L, 48 hours
[22] = Table 7: co-treatment with colchicine, TMX 4000 mg/L, 24 hours
[23] = Table 7: co-treatment with colchicine, TMX 4000 mg/L, 48 hours
[24] = Table 7: co-treatment with colchicine, TMX 8000 mg/L, 24 hours
[25] = Table 7: co-treatment with colchicine, TMX 8000 mg/L, 48 hours
[26] = Table 8: co-treatment with colchicine, TMX 2000 mg/L, 24 hours
[27] = Table 8: co-treatment with colchicine, TMX 2000 mg/L, 48 hours
[28] = Table 8: co-treatment with colchicine, TMX 4000 mg/L, 24 hours
[29] = Table 8: co-treatment with colchicine, TMX 4000 mg/L, 48 hours
[30] = Table 8: co-treatment with colchicine, TMX 6000 mg/L, 24 hours
[31] = Table 8: co-treatment with colchicine, TMX 6000 mg/L, 48 hours

In the case of CNC(=O)Nc1ccc(S(=O)(=O)NC(=O)c2ccccc2OC)cc1 [Metcamifen, metcamifen], the “Potted Rate Mean” value ([1]; embryo pre-treatment 10 mg/L in MS media, 1 day, 6° C. (Table 3 experiment)) is reported as 62%, the “Potted Rate Mean” value ([1]; embryo pre-treatment 10 mg/L in MS media, 1 day, 6° C. (Table 3 experiment), listed as metcamifen) is reported as “significantly higher potting rate than the control” and the “Potted Rate Mean” value ([1]; embryo pre-treatment 10 mg/L in MS media, 1 day, 20° C.) is reported as 23%. The “Potted Rate Mean” value ([1]; embryo pre-treatment 10 mg/L in MS media, 1 day, 20° C., listed as metcamifen) was 2%, the “Potted Rate Mean” value ([1]; embryo pre-treatment in MS media, 10 mg/L, 1 day, 6° C.) was 46% and the “Potted Rate Mean” value ([1]; embryo pre-treatment in MS media, 10 mg/L, 3 days, 6° C.) was 38%. For the same compound, the “Potted Rate Mean” value ([1]; embryo pre-treatment in MS media, 10 mg/L, 5 days, 6° C.) was 4%, the “Potted Rate Mean” value ([1]; embryo pre-treatment in MS media, 10 mg/L, 7 days, 6° C.) was 27% and the “Potted Rate Mean” value ([1]; embryo pre-treatment in MS media, 100 mg/L, 1 day, 6° C.) was 12%. The “Potted Rate Mean” value ([1]; embryo pre-treatment in MS media, 100 mg/L, 3 days, 6° C.) was 12%, the “Potted Rate Mean” value ([1]; embryo pre-treatment in MS media, 100 mg/L, 5 days, 6° C.) was 16% and the “Potted Rate Mean” value ([1]; embryo pre-treatment in MS media, 100 mg/L, 7 days, 6° C.) was 24%. The “Potted Rate Mean” value ([1]; embryo pre-treatment in MS media, 1000 mg/L, 1 day, 6° C.) was 10%, the “Potted Rate Mean” value ([1]; embryo pre-treatment in MS media, 1000 mg/L, 3 days, 6° C.) was 16% and the “Potted Rate Mean” value ([1]; embryo pre-treatment in MS media, 1000 mg/L, 5 days, 6° C.) was 17%. The “Potted Rate Mean” value ([1]; embryo pre-treatment in MS media, 1000 mg/L, 7 days, 6° C.) was 17%.

For CN1COCN(Cc2cnc(Cl)s2)/C1=N\[N+](=O)[O-] [TMX, thiamethoxam], the “Potting Rate Mean” value [2, 4] was 55%, the “Transplant Rate Mean” value [2, 4] was 51% and the “Potting Rate Mean” value [2, 5] was 7%. The “Transplant Rate Mean” value [2, 5] was 7%, the “Potting Rate Mean” value [2, 6] was 38% and the “Transplant Rate Mean” value [2, 6] was 37%. For the same compound, the “Potting Rate Mean” value [2, 7] was 15%, the “Transplant Rate Mean” value [2, 7] was 15% and the “Potting Rate Mean” value [2, 8] was 58%. For the same compound, the “Transplant Rate Mean” value [2, 8] was 55%, the “Potting Rate Mean” value [2, 9] was 11% and the “Transplant Rate Mean” value [2, 9] was 11%. The “Potting Rate Mean” value [2, 10] was 68%, the “Transplant Rate Mean” value [2, 10] was 54% and the “Potting Rate Mean” value [2, 11] was 77%. For the same compound, the “Transplant Rate Mean” value [2, 11] was 66%, the “Potting Rate Mean” value [2, 12] was 51% and the “Transplant Rate Mean” value [2, 12] was 42%. For the same compound, the “Potting Rate Mean” value [2, 13] was 74%, the “Transplant Rate Mean” value [2, 13] was 56% and the “Potted Rate Mean” value [3, 14] was 52%. The “Transplant Rate Mean” value [3, 14] was 33%, the “Potted Rate Mean” value [3, 15] was 12% and the “Transplant Rate Mean” value [3, 15] was 9%. The “Potted Rate Mean” value [3, 16] was 65%, the “Transplant Rate Mean” value [3, 16] was 41% and the “Potted Rate Mean” value [3, 17] was 18%. The “Transplant Rate Mean” value [3, 17] was 12%, the “Potted Rate Mean” value [3, 18] was 74% and the “Transplant Rate Mean” value [3, 18] was 50%. For the same compound, the “Potted Rate Mean” value [3, 19] was 32%, the “Transplant Rate Mean” value [3, 19] was 21% and the “Potted Rate Mean” value [3, 20] was 76%. For the same compound, the “Transplant Rate Mean” value [3, 20] was 73%, the “Potted Rate Mean” value [3, 21] was 22% and the “Transplant Rate Mean” value [3, 21] was 15%. For the same compound, the “Potted Rate Mean” value [3, 22] was 82%, the “Transplant Rate Mean” value [3, 22] was 79% and the “Potted Rate Mean” value [3, 23] was 67%. The “Transplant Rate Mean” value [3, 23] was 61%, the “Potted Rate Mean” value [3, 24] was 47% and the “Transplant Rate Mean” value [3, 24] was 45%. The “Potted Rate Mean” value [3, 25] was 20%, the “Transplant Rate Mean” value [3, 25] was 16% and the “Potted Rate Mean” value [3, 26] was 68%. For the same compound, the “Transplant Rate Mean” value [3, 26] was 62%, the “Potted Rate Mean” value [3, 27] was 27% and the “Transplant Rate Mean” value [3, 27] was 26%. For the same compound, the “Potted Rate Mean” value [3, 28] was 90%, the “Transplant Rate Mean” value [3, 28] was 86% and the “Potted Rate Mean” value [3, 29] was 63%. The “Transplant Rate Mean” value [3, 29] was 56%, the “Potted Rate Mean” value [3, 30] was 86% and the “Transplant Rate Mean” value [3, 30] was 74%. The “Potted Rate Mean” value [3, 31] was 89%, the “Transplant Rate Mean” value [3, 31] was 83% and the “Seedling height (overall plant height)” value ([3]; initial testing, TMX 150 or 750 mg/L, 24-hour and 48-hour) was “taller”. For the same compound, the potting rate ([3]; initial testing, TMX 150 or 750 mg/L, 24-hour co-treatment) was no less than 80%.
